Results reported in patent publication US11731943B2, “Therapeutic compounds, compositions and methods of use thereof” (priority 2016, dated 2023).
Like-named read-outs stand apart in the source and are kept apart here.

Tests used:
[1] = biological target: isolated recombinant JAK2 kinase domain (Homo sapiens (Human), UniProt O60674); assay: JAK2 enzyme assay (Caliper LabChip, Ki); assay type: biochemical
Method in brief: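 Recombinant human JAK1 or JAK2 kinase domain phosphorylating a 5-carboxyfluorescein-labelled JAK3-derived peptide; 30 min at 22 °C, stopped with EDTA (50 mM final). Phosphorylated product measured as a fraction of total peptide by Caliper LabChip mobility shift.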

[2] = biological target: isolated recombinant JAK1 kinase domain (Homo sapiens (Human), UniProt P23458); assay: JAK1 enzyme assay (Caliper LabChip, Ki); assay type: biochemical; conditions: read-out: JAK1 Ki
Method in brief: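 Recombinant human JAK1 kinase domain phosphorylating an N-terminally 5-carboxyfluorescein-labelled JAK3-derived peptide, 30 min at 22 °C, stopped with EDTA (50 mM final). Phosphorylated fraction of total peptide read by Caliper LabChip mobility shift; Ki from Morrison tight-binding fit corrected for ATP competition (Ki=Ki,app/(1+[ATP]/Km,app)).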

[3] = tested on: JAK1-dependent STAT6 phosphorylation downstream of IL-13 stimulation in BEAS-2B human bronchial epithelial cells; assay: JAK1 pathway assay in BEAS-2B cells (IL-13-pSTAT6, MSD); assay type: cell-based; conditions: BEAS-2B cells, IL-13 stimulation, read-out: IL-13 p-STAT6 BEAS-2B IC50

isolated recombinant JAK1 kinase domain, sequence (P23458 875-1153): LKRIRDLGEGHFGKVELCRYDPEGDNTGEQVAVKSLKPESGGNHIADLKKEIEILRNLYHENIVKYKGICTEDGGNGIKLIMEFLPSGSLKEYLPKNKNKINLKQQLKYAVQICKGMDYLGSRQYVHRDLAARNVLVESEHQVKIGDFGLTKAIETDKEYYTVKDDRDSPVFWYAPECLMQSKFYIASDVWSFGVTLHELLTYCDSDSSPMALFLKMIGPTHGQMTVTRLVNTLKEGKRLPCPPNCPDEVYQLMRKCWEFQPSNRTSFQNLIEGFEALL
isolated recombinant JAK2 kinase domain, sequence (O60674 849-1124): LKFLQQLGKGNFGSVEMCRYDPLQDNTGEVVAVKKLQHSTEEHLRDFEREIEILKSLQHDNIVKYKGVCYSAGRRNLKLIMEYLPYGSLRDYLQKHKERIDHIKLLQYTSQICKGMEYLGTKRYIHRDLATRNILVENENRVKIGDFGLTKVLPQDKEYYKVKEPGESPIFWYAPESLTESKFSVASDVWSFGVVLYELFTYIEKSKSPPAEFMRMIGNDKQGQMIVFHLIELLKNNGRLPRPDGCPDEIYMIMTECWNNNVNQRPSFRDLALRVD

| SMILES | Ki [1] [nM] | Ki [2] [nM] | IC50 ([3]; Homo sapiens, BEAS-2B) [nM] | IC50 [3] [nM] |
| --- | --- | --- | --- | --- |
| CCc1ccc(-c2ccc(CN3CCC(CC#N)(n4cc(C(N)=O)c(NC(=O)C5CC5C#N)n4)C(F)C3)cc2O)cc1 (stereo not drawn) [Example 221, 3-[(2-cyanocyclopropanecarbonyl)amino]-1-[4-(cyanomethyl)-1-[[4-(4-ethylphenyl)-3-hydroxy-phenyl]methyl]-3-fluoro-4-piperidyl]pyrazole-4-carboxamide] | 1.7 | 0.3 | 90 | – |
| N#CC[C@]1(n2cc(C(N)=O)c(NC(=O)C3CC3)n2)CCN(Cc2ccc(-c3ccccc3)cc2)C[C@H]1F (single isomer, unassigned) [Example 14] | 0.4 | 0.2 | 16 | – |
| COC(=O)Nc1nn(C2(CC#N)CCN(Cc3ccc(-c4ccccc4)c(O)c3)CC2)cc1C(N)=O [Example 186, Methyl (4-carbamoyl-1-(4-(cyanomethyl)-1-((2-hydroxy-[1,1′-biphenyl]-4-yl) Methyl)piperidin-4-yl)-1H-pyrazol-3-yl)carbamate] | 1 | 0.24 | 68 | – |
| C#Cc1ccc(CN2CCC(CC#N)(n3cc(C(N)=O)c(NC(=O)C4CC4)n3)C(F)C2)c(Cl)c1 (stereo not drawn) [Example 280, 1-[1-[(2-chloro-4-ethynyl-phenyl)methyl]-4-(cyanomethyl)-3-fluoro-4-piperidyl]-3-(cyclopropanecarbonylamino) pyrazole-4-carboxamide] | 0.4 | 0.3 | 16 | – |
| N#CCC1(n2cc(C(N)=O)c(NC(=O)C3CC3)n2)CCN(CC(F)(F)F)CC1 [Example 23] | 19.4 | 4.5 | 250 | – |
| COC(=O)Nc1nn(C2(CC#N)CCN(Cc3cc(O)c(C)cc3F)CC2F)cc1C(N)=O (stereo not drawn) [Example 292, methyl N-[4-carbamoyl-1-[4-(cyanomethyl)-3-fluoro-1-[(2-fluoro-5-hydroxy-4-methyl-phenyl)methyl]-4-piperidyl]pyrazol-3-yl]carbamate] | 0.7 | 0.55 | 49 | – |
| COC(=O)Nc1nn(C2(CC#N)CCN(Cc3ccc(-n4ncc(C)n4)cc3)CC2F)cc1C(N)=O (stereo not drawn) [Example 267, methyl N-[4-carbamoyl-1-[4-(cyanomethyl)-3-fluoro-1-[[4-(4-methyltriazol-2-yl)phenyl]methyl]-4-piperidyl]pyrazol-3-yl]carbamate] | 0.84 | 0.86 | 51 | – |
| COC(=O)Nc1nn(C2(CC#N)CCN(Cc3c(F)cc(-c4ccccc4)c(O)c3F)CC2F)cc1C(N)=O (stereo not drawn) [Example 248, Methyl N-[4-carbamoyl-1-[4-(cyanomethyl)-1-[(2,6-difluoro-3-hydroxy-4-phenylphenyl)methyl]-3-fluoropiperidin-4-yl]-1H-pyrazol-3-yl]carbamate] | 0.25 | 0.28 | 30 | – |
| N#CCC1(n2cc(C(N)=O)c(NC(=O)C3CC3)n2)CCN(Cc2ccc(-c3ccccc3)c(O)c2)CC1 [Example 11, 1-(4-(Cyanomethyl)-1-((2-hydroxy-[1,1′-biphenyl]-4-yl)methyl)piperidin-4-yl)-3-(cyclopropanecarboxamido)-1H-pyrazole-4-carboxamide] | 1 | 0.4 | 383 | – |
| N#CCC1(n2cc(C(N)=O)c(NC(=O)C3CC3)n2)CCN(C(=O)OCC(F)(F)F)CC1 [Example 167, 2,2,2-trifluoroethyl 4-[4-carbamoyl-3-(cyclopropanecarbonylamino)pyrazol-1-yl]-4-(cyanomethyl)piperidine-1-carboxylate] | 28.7 | 2.3 | 833 | – |
| C=Cc1ccc(CN2CCC(CC#N)(n3cc(C(N)=O)c(NC(=O)OC)n3)C(F)C2)cc1O (stereo not drawn) [Example 284, methyl N-[4-carbamoyl-1-[4-(cyanomethyl)-3-fluoro-1-[(3-hydroxy-4-vinyl-phenyl)methyl]-4-piperidyl]pyrazol-3-yl]carbamate] | 0.5 | 0.3 | 48 | – |
| C=C(C)c1ccc(CN2CCC(CC#N)(n3cc(C(N)=O)c(NC(=O)C4CC4)n3)C(F)C2)cc1 (stereo not drawn) [Example 259, 1-[4-(cyanomethyl)-3-fluoro-1-[(4-isopropenylphenyl)methyl]-4-piperidyl]-3-(cyclopropanecarbonylamino) pyrazole-4-carboxamide] | 1.8 | 0.84 | 50 | – |
| COC(=O)Nc1nn(C2(CC#N)CCN(Cc3ccc(-c4ccccc4)c(O)c3)CC2F)cc1C(N)=O (stereo not drawn) [Example 195, methyl N-[4-carbamoyl-1-[4-(cyanomethyl)-3-fluoro-1-[(3-hydroxy-4-phenyl-phenyl)methyl]-4-piperidyl]pyrazol-3-yl]carbamate] | 0.15 | 0.11 | 15 | – |
| N#CCC1(n2cc(C(N)=O)c(NC(=O)C3CC3)n2)CCN(Cc2ccc(-c3ccn(CC(F)(F)F)n3)c(F)c2)CC1 [Example 190, 1-[4-(cyanomethyl)-1-[[3-fluoro-4-[1-(2,2,2-trifluoroethyl)pyrazol-3-yl]phenyl]methyl]-4-piperidyl]-3-(cyclopropanecarbonylamino) pyrazole-4-carboxamide] | 11 | 1.1 | 93 | – |
| N#CCC1(n2cc(C(N)=O)c(NC(=O)C3CC3C#N)n2)CCN(Cc2ccc(-c3ccccc3)cc2F)CC1F (stereo not drawn) [Example 218, 3-[(2-cyanocyclopropanecarbonyl)amino]-1-[4-(cyanomethyl)-3-fluoro-1-[(2-fluoro-4-phenyl-phenyl)methyl]-4-piperidyl]pyrazole-4-carboxamide] | 0.59 | 0.35 | – | 28 |
| N#CCC1(n2cc(C(N)=O)c(NC(=O)C3CC3)n2)CCN(Cc2ccc(F)cc2)CC1 [Example 57] | 49 | 3.9 | 128 | – |
| N#CCC1(n2cc(C(N)=O)c(NC(=O)OC3CC3)n2)CCN(Cc2ccc(-c3ccccc3)c(O)c2)CC1 [Example 209, cyclopropyl N-[4-carbamoyl-1-[4-(cyanomethyl)-1-[(3-hydroxy-4-phenyl-phenyl)methyl]-4-piperidyl]pyrazol-3-yl]carbamate] | 3.8 | 0.49 | 98 | – |
| COC(=O)Nc1nn(C2(CC#N)CCN(Cc3ccc(C4=CCCC4)c(O)c3)CC2F)cc1C(N)=O (stereo not drawn) [Example 269, methyl N-[4-carbamoyl-1-[4-(cyanomethyl)-1-[[4-(cyclopenten-1-yl)-3-hydroxy-phenyl]methyl]-3-fluoro-4-piperidyl]pyrazol-3-yl]carbamate] | 0.55 | 0.6 | 35 | – |
| CCOC(=O)Nc1nn(C2(CC#N)CCN(Cc3ccc(-n4nccn4)cc3)CC2F)cc1C(N)=O (stereo not drawn) [Example 225, ethyl N-[4-carbamoyl-1-[4-(cyanomethyl)-3-fluoro-1-[[4-(triazol-2-yl)phenyl]methyl]-4-piperidyl]pyrazol-3-yl]carbamate] | 1.3 | 0.62 | 44 | – |
| N#CCC1(n2cc(C(N)=O)c(NC(=O)C3CC3)n2)CCN(Cc2cccc(F)c2)CC1 [Example 56] | 24.3 | 2.4 | 363 | – |
| C=Cc1cc(F)c(CN2CCC(CC#N)(n3cc(C(N)=O)c(NC(=O)OC)n3)C(F)C2)cc1O (stereo not drawn) [Example 285, methyl N-[4-carbamoyl-1-[4-(cyanomethyl)-3-fluoro-1-[(2-fluoro-5-hydroxy-4-vinyl-phenyl)methyl]-4-piperidyl]pyrazol-3-yl]carbamate] | 0.23 | 0.19 | 22 | – |
| N#CCC1(n2cc(C(N)=O)c(NC(=O)C3CC3)n2)CCC(Nc2ccc(-n3nccn3)cc2)CC1 (stereo not drawn) [Example 288, 1-[1-(cyanomethyl)-4-[4-(triazol-2-yl)anilino]cyclohexyl]-3-(cyclopropanecarbonylamino) pyrazole-4-carboxamide] | 4.4 | 0.28 | 41 | – |
| N#CCC1(n2cc(C(N)=O)c(NC(=O)C3CC3C#N)n2)CCN(Cc2ccc(-c3ccccc3)nc2F)CC1F (stereo not drawn) [Example 227, 3-[(2-cyanocyclopropanecarbonyl)amino]-1-[4-(cyanomethyl)-3-fluoro-1-[(2-fluoro-6-phenyl-3-pyridyl)methyl]-4-piperidyl]pyrazole-4-carboxamide] | 0.63 | 0.31 | 54 | – |
| N#CCC1(n2cc(C(N)=O)c(NC(=O)C3CC3)n2)CCN(Cc2ccc(-c3ncco3)cc2)CC1F (stereo not drawn) [Example 255, 1-[4-(cyanomethyl)-3-fluoro-1-[(4-oxazol-2-ylphenyl)methyl]-4-piperidyl]-3-(cyclopropanecarbonylamino) pyrazole-4-carboxamide] | 0.96 | 1.2 | 70 | – |
| N#CCC1(n2cc(C(N)=O)c(NC(=O)C3CC3)n2)CCN(Cc2ccc(-c3ccc(C(F)(F)F)cc3)cc2)CC1 [Example 151, 1-[4-(cyanomethyl)-1-[[4-[4-(trifluoromethyl)phenyl]phenyl]methyl]-4-piperidyl]-3-(cyclopropanecarbonylamino) pyrazole-4-carboxamide] | 154 | 3.4 | 286 | – |
| N#CC[C@@]1(n2cc(C(N)=O)c(NC(=O)C3CC3)n2)CCN(Cc2ccc(-c3ccccc3)cc2)C[C@@H]1F (single isomer, unassigned) [Example 13] | 2.2 | 0.6 | 37 | – |
| CS(=O)(=O)Nc1cc(F)cc(CN2CCC(CC#N)(n3cc(C(N)=O)c(NC(=O)C4CC4)n3)CC2)c1 [Example 80] | 3.6 | 1.2 | > 1000 | – |
